Patent publication US20060003020A1, “Anti-metastatic ability of mibefradil and gadolinium” (THE REGENTS OF THE UNIVERSITY OF MICHIGAN, priority 2004, published 2006)

Experiments:
HT1080 cells [1] = test: Phagokinetic track assay of HT1080 cell motility; format: cell-based; conditions: for inhibitory effect on clearing of the surface: concentrations expected to block the relevant Ca^2+ channels; for inhibitory effect on clearing of the surface / ability of HT1080 cells to clear the surrounding surface: 22 hours; for ability of HT1080 cells to clear the surrounding surface: brightfield microscopy; for cell motility by swept area ratio (total swept area divided by cell area): dose response, HT1080 cells
Description: HT1080 cells were incubated on gold particle-coated glass coverslips for 22 hours. […] A suspension of 5000 cells/ml was treated with or without Ca^2+ channel blockers then seeded onto the gold-coated coverslips. […] The tracks produced by the cells were viewed by brightfield microscopy with a 10× objective. Thirty randomly selected tracks were measured for each slide.
As cells migrated on these surfaces, the gold particles were cleared from regions of the surface and frequently picked up by the cells, making the cells appear darker and the surrounding area appear lighter when viewed by microscopy.
The size of HT1080 cells varies considerably. To evaluate cell motility, a swept area ratio was used, which calculates total swept area divided by cell area.

HT1080 cells [2] = test: Biocoat Matrigel invasion chamber assay of HT1080 cell invasion; format: cell-based; conditions: 22 hour incubation; for effect on cell invasiveness: pharmacologically appropriate doses; for number of migrating cells: control cells approximately 80; for lowest dose that exhibits maximal inhibition of invasiveness: HT1080 cells; for HT1080 cell transmigration: dose response
HT1080 cells [3] = test: High speed microscopy of intracellular Ca^2+ waves in HT1080 cells; format: cell-based; conditions: high speed imaging
Description: Recent studies have shown that Ca^2+ spikes of polarized neutrophils and colorectal tumor cell transfectants are associated with certain intracellular Ca^2+ waves (Kindzelskii et al., J. Immunol. 170:64-72, 2003; Wang et al., J Immunol. 170:795-804, 2003). To visualize these waves, images must be collected using very short shutter speeds to avoid image blurring due to wave motion and indo-1 diffusion while the shutter is open. […]
High speed microscopy was performed using an Axiovert 135 fluorescene microscope with a quartz condenser, quartz objective, and an AttoArc mercury lamp (Zeiss). To detect fluorescence changes in the short wavelength emission region of indo-1, a 355HT15 exciter, a 390LP dichroic reflector, and a 405DF43 emission filter were used. […]
A region of high Ca concentration, seen in the microscope as a bright spot within the cell, was brought about by the local opening of Ca^2+ channels. As indo-1 has a relatively high affinity for Ca^2+ and a finite amount of time was required for the signaling apparatus to pump-down free cytosolic Ca^2+, a low intensity “tail” was observed next to the region of bright Ca^2+ indo-1 fluorescence (i.e., the Ca^2+ wave has a low intensity tail on the side opposite to the direction of wave motion).

HT1080 cells [4] = test: T-type channel expression and cell shape of mibefradil treated HT1080 cells
Description: Thus, it was necessary to determine if blockade of T-type calcium channels on HT1080 cells caused morphological transformation.

HT1080 cells [5] = test: Microfluorometry of Ca^2+ spikes/oscillations in indo-1 labeled HT1080 cells; conditions: concentration not given

| SMILES | inhibitory effect on clearing of the surface (HT1080 cells [1]) | effect on cell invasiveness (HT1080 cells [2]) | ability of HT1080 cells to clear the surrounding surface (HT1080 cells [1]; 1.5 μM) | cell motility by swept area ratio (total swept area divided by cell area) (HT1080 cells [1]) | propagating Ca^2+ wave after addition (HT1080 cells [3]) | number of migrating cells (HT1080 cells [2]) | lowest dose that exhibits maximal inhibition of invasiveness (HT1080 cells [2]) [µM] | HT1080 cell transmigration (HT1080 cells [2]) | further results |
| --- | --- | --- | --- | --- | --- | --- | --- | --- | --- |
| COc1ccc([C@@H]2Sc3ccccc3N(CCN(C)C)C(=O)[C@@H]2OC(C)=O)cc1 [diltiazem] | no inhibitory effect was observed | no effect |  |  |  |  |  |  |  |
| COC(=O)C1=C(C)NC(C)=C(C(=O)OCCN(C)Cc2ccccc2)C1c1cccc([N+](=O)[O-])c1 (stereo not shown) [nicardipine] |  | no effect |  |  |  |  |  |  |  |
| COc1ccc(CCCOC(Cn2ccnc2)c2ccc(OC)cc2)cc1 (stereo not shown) [SKF96365] | no inhibitory effect was observed | no effect |  |  |  |  |  |  |  |
| NC(=O)c1nnn(Cc2cc(Cl)c(C(=O)c3ccc(Cl)cc3)c(Cl)c2)c1N [CAI, Carboxyamidotriazole] |  |  |  |  |  |  |  |  | ability of HT1080 cells to clear the surrounding surface (HT1080 cells [1]; 10 μM): significantly decreased |
| COCC(=O)O[C@]1(CCN(C)CCCc2nc3ccccc3[nH]2)CCc2cc(F)ccc2[C@@H]1C(C)C [mibefradil] |  |  | significantly decreased | significantly inhibited cell motility in a dose-dependent manner | no propagating Ca^2+ wave was found | approximately 25 | 5 | inhibited HT1080 cell transmigration in a dose-dependent fashion | decrease of cell-swept area compared with control treated cells (HT1080 cells [1]; 5 μM): approximately 90%; cell shape / morphological transformation (HT1080 cells [4]): maintain their rounded shape |
| [Gd+3] [Gd^3+, gadolinium (Gd^3+)] |  |  | significantly decreased | significantly inhibited cell motility in a dose-dependent manner | a Ca^2+ wave was observed in cells before, but not after addition | approximately 22 | 20 | inhibited HT1080 cell transmigration in a dose-dependent fashion | HT1080 movement (HT1080 cells [1]; Six μM): almost completely abolished; effect on Ca^2+ spikes (HT1080 cells [5]): Ca^2+ spikes diminished then disappeared |
